Measurements published in patent publication US10758534B2 (Vertex Pharmaceuticals Incorporated, priority 2014, dated 2020).

Target: T1, F508del (Homo sapiens, UniProt P13569, DEL508-508)
T1 construct: expressed in transfected cells
Assay: Protocol 2: FRET membrane potential optical assay (VIPR), identification of correction compounds
Assay type: cell-based
Conditions: Table 3; compounds of Table 1 as modulators of CFTR activity; protocol not stated
In short: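 Mouse NIH3T3 cells, stable F508del; cpd 16 hrs, 37° C., serum-free; pos ctrl 27° C. 16 hrs. Rinse in Krebs Ringers, dye load, then add 10 μM forskolin + 20 μM genistein with Cl^−-free (gluconate) medium; depolarization by FRET voltage dyes.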

T1 sequence (P13569 with tags, fused parts or gaps DEL508-508): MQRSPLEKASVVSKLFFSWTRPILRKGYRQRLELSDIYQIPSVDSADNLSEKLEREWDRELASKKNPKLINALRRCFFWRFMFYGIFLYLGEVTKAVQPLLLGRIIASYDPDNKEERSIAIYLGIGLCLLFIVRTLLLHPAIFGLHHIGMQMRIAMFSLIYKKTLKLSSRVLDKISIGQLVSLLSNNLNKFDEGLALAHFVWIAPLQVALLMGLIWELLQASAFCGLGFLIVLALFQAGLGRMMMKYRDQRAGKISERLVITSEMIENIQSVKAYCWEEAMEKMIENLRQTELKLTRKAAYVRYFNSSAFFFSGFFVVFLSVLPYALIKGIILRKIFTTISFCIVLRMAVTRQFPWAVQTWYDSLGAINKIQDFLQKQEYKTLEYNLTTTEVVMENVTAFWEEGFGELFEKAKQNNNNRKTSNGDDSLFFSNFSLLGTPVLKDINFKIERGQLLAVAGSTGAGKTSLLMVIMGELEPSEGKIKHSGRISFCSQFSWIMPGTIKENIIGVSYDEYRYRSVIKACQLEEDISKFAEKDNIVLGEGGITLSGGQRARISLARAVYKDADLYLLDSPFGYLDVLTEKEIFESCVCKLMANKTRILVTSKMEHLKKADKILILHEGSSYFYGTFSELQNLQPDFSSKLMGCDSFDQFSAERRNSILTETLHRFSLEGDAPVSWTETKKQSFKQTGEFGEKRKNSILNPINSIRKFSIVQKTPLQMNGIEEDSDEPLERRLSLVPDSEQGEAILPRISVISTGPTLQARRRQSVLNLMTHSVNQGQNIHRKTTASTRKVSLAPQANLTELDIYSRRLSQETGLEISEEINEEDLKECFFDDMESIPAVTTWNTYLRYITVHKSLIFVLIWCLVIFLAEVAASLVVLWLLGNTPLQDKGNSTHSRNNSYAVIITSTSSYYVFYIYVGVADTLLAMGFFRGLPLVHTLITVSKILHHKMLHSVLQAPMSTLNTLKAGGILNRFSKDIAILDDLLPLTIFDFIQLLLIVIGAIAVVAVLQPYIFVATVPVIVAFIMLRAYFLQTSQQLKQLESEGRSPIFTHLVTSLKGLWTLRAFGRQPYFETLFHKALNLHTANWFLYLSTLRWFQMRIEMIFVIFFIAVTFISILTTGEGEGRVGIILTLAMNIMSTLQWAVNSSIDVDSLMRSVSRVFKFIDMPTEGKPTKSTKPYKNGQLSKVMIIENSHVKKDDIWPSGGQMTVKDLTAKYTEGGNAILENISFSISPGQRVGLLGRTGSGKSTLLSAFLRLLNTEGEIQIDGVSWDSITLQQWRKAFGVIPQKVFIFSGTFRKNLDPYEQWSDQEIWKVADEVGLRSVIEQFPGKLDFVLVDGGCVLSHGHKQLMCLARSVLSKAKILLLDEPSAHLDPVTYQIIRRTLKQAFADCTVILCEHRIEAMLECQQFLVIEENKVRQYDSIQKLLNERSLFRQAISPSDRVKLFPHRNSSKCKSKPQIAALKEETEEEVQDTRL

| SMILES | EC30 |
| --- | --- |
| Cc1cc(C)c(Oc2nc(C(C)(C)C)ccc2C(=O)NS(=O)(=O)c2ccccc2C#N)c(C)c1 [Compound 78, 6-tert-butyl-N-(2-cyanophenyl)sulfonyl-2-(2,4,6-trimethylphenoxy)pyridine-3-carboxamide] | +++ (“+++” means <3 uM) |
| COc1ccccc1S(=O)(=O)NC(=O)C1c2ccccc2CN1Cc1c(C)cc(C)cc1C (stereo not drawn) [Compound 79, N-(2-methoxyphenyl)sulfonyl-2-[(2,4,6-trimethylphenyl)methyl]isoindoline-1-carboxamide] | ++ (“++” means between 3 uM and 10 uM) |
| Cc1cccc(S(=O)(=O)NC(=O)c2cc(C(C)(C)C)nn2Cc2c(C)cc(C)cc2C)c1 [Compound 80, 5-tert-butyl-N-(m-tolylsulfonyl)-2-[(2,4,6-trimethylphenyl)methyl]pyrazole-3-carboxamide] | +++ (“+++” means <3 uM) |
| Cc1cccc(C)c1Cn1nc(C(C)(C)C)cc1C(=O)NS(=O)(=O)c1ccc(N)cc1 [Compound 81, N-(4-aminophenyl)sulfonyl-5-tert-butyl-2-[(2,6-dimethylphenyl)methyl]pyrazole-3-carboxamide] | +++ (“+++” means <3 uM) |
| Cc1cc(C)c(Cn2c(C(=O)NS(=O)(=O)c3ccncc3)cc3c(Cl)cccc32)c(C)c1 [Compound 82, 4-chloro-N-(4-pyridylsulfonyl)-1-[(2,4,6-trimethylphenyl)methyl]indole-2-carboxamide] | +++ (“+++” means <3 uM) |
| Cc1cccc(C)c1Cn1nc(-c2cccc(Cl)c2)cc1C(=O)NS(=O)(=O)c1ccccc1 [Compound 83, N-(benzenesulfonyl)-5-(3-chlorophenyl)-2-[(2,6-dimethylphenyl)methyl]pyrazole-3-carboxamide] | +++ (“+++” means <3 uM) |
| Cc1cc(C)c(Cn2nc(C(C)(C)C)cc2C(=O)NS(=O)(=O)c2cccc(O)c2)c(C)c1 [Compound 84, 5-tert-butyl-N-(3-hydroxyphenyl)sulfonyl-2-[(2,4,6-trimethylphenyl)methyl]pyrazole-3-carboxamide] | +++ (“+++” means <3 uM) |
| CN(c1ccccc1)c1nc(C(C)(C)C)ccc1C(=O)NS(=O)(=O)c1cccc(N)c1 [Compound 85, N-(3-aminophenyl)sulfonyl-6-tert-butyl-2-(N-methylanilino)pyridine-3-carboxamide] | ++ (“++” means between 3 uM and 10 uM) |
| Cc1cccc(C)c1Cn1nc(C(C)(C)C)cc1C(=O)NS(=O)(=O)c1cccc2[nH]ncc12 [Compound 86, 5-tert-butyl-2-[(2,6-dimethylphenyl)methyl]-N-(1H-indazol-4-ylsulfonyl)pyrazole-3-carboxamide] | ++ (“++” means between 3 uM and 10 uM) |
| Cc1cc(C)c(Cn2c(C(=O)NS(=O)(=O)c3ccccc3)cc3c(F)cccc32)c(C)c1 [Compound 87, N-(benzenesulfonyl)-4-fluoro-1-[(2,4,6-trimethylphenyl)methyl]indole-2-carboxamide] | +++ (“+++” means <3 uM) |
| Cc1cccc(C)c1Cn1nc(C(C)(C)C)cc1C(=O)NS(=O)(=O)c1ccccc1N [Compound 88, N-(2-aminophenyl)sulfonyl-5-tert-butyl-2-[(2,6-dimethylphenyl)methyl]pyrazole-3-carboxamide] | +++ (“+++” means <3 uM) |
| COc1ncccc1S(=O)(=O)NC(=O)c1ccc(C(C)(C)C)nc1Oc1ccc(C)cc1C [Compound 89, 6-tert-butyl-2-(2,4-dimethylphenoxy)-N-[(2-methoxy-3-pyridyl)sulfonyl]pyridine-3-carboxamide] | +++ (“+++” means <3 uM) |
| Cc1cc(C)c(CN2Cc3ccccc3C2C(=O)NS(=O)(=O)c2cccc(N)c2)c(C)c1 (stereo not drawn) [Compound 90, N-(3-aminophenyl)sulfonyl-2-[(2,4,6-trimethylphenyl)methyl]isoindoline-1-carboxamide] | +++ (“+++” means <3 uM) |
| Cc1cc(C)c(Oc2nc3ccccc3cc2C(=O)NS(=O)(=O)c2cccc(N)n2)c(C)c1 [Compound 91, N-[(6-amino-2-pyridyl)sulfonyl]-2-(2,4,6-trimethylphenoxy)quinoline-3-carboxamide] | ++ (“++” means between 3 uM and 10 uM) |
| COc1cccnc1S(=O)(=O)NC(=O)c1ccc(C(C)(C)C)nc1Oc1c(C)cc(C)cc1C [Compound 92, 6-tert-butyl-N-[(3-methoxy-2-pyridyl)sulfonyl]-2-(2,4,6-trimethylphenoxy)pyridine-3-carboxamide] | +++ (“+++” means <3 uM) |
| Cc1cc(C)c(Oc2nc(-c3ccc(F)cc3)ccc2C(=O)NS(=O)(=O)c2cccc(N)n2)c(C)c1 [Compound 93, N-[(6-amino-2-pyridyl)sulfonyl]-6-(4-fluorophenyl)-2-(2,4,6-trimethylphenoxy)pyridine-3-carboxamide] | +++ (“+++” means <3 uM) |
| Cc1cc(C)c(CN2Cc3ccccc3C2C(=O)NS(=O)(=O)c2ccncc2)c(C)c1 (stereo not drawn) [Compound 94, N-(4-pyridylsulfonyl)-2-[(2,4,6-trimethylphenyl)methyl]isoindoline-1-carboxamide] | +++ (“+++” means <3 uM) |

| SMILES | EC30 |
| --- | --- |
| Cc1cc(C)c(CN2Cc3cccc(C)c3CC2C(=O)NS(=O)(=O)c2cccc(N)n2)c(C)c1 (stereo not drawn) [Compound 95, N-[(6-amino-2-pyridyl)sulfonyl]-5-methyl-2-[(2,4,6-trimethylphenyl)methyl]-3,4-dihydro-H-isoquinoline-3-carboxamide] | +++ (“+++” means <3 uM) |
| Cc1cc(C)c(Oc2nc(C(F)(F)F)ccc2C(=O)NS(=O)(=O)c2cccc(N)c2)c(C)c1 [Compound 96, N-(3-aminophenyl)sulfonyl-6-(trifluoromethyl)-2-(2,4,6-trimethylphenoxy)pyridine-3-carboxamide] | +++ (“+++” means <3 uM) |
| Cc1cc(C)c(Oc2nc(-c3c(C)cccc3C)ccc2C(=O)NS(=O)(=O)c2cccc(N)n2)c(C)c1 [Compound 97, N-[(6-amino-2-pyridyl)sulfonyl]-6-(2,6-dimethylphenyl)-2-(2,4,6-trimethylphenoxy)pyridine-3-carboxamide] | +++ (“+++” means <3 uM) |
| Cc1c(Cn2nc(C(C)(C)C)cc2C(=O)NS(=O)(=O)c2ccccc2)cccc1C(F)(F)F [Compound 98, N-(benzenesulfonyl)-5-tert-butyl-2-[[2-methyl-3-(trifluoromethyl)phenyl]methyl]pyrazole-3-carboxamide] | +++ (“+++” means <3 uM) |
| Cc1cccc(C)c1Cn1nc(-c2ccccc2C#N)cc1C(=O)NS(=O)(=O)c1ccccc1 [Compound 99, N-(benzenesulfonyl)-5-(2-cyanophenyl)-2-[(2,6-dimethylphenyl)methyl]pyrazole-3-carboxamide] | +++ (“+++” means <3 uM) |
| COc1ccc(OC)c(-c2cc(C(=O)NS(=O)(=O)c3ccccc3)n(Cc3c(C)cccc3C)n2)c1 [Compound 100, N-(benzenesulfonyl)-5-(2,5-dimethoxyphenyl)-2-[(2,6-dimethylphenyl)methyl]pyrazole-3-carboxamide] | +++ (“+++” means <3 uM) |
| COc1cccc(Oc2nc(C(C)(C)C)ccc2C(=O)NS(=O)(=O)c2ccccc2)c1 [Compound 101, N-(benzenesulfonyl)-6-tert-butyl-2-(3-methoxyphenoxy)pyridine-3-carboxamide] | +++ (“+++” means <3 uM) |
| Cc1cc(C)c(Oc2cc(C(C)(C)C)ccc2C(=O)NS(=O)(=O)c2cccc(N)n2)c(C)c1 [Compound 102, N-[(6-amino-2-pyridyl)sulfonyl]-4-tert-butyl-2-(2,4,6-trimethylphenoxy)benzamide] | +++ (“+++” means <3 uM) |
| Cc1cc(C)c(CN2Cc3c(C(C)C)cccc3C2C(=O)NS(=O)(=O)c2ccc[nH]c2=O)c(C)c1 (stereo not drawn) [Compound 103, 4-isopropyl-N-[(2-oxo-1H-pyridin-3-yl)sulfonyl]-2-[(2,4,6-trimethylphenyl)methyl]isoindoline-1-carboxamide] | +++ (“+++” means <3 uM) |
| Cc1cc(C)c(Cn2nc(C(C)(C)C)cc2C(=O)NS(=O)(=O)c2cccc(N(C)C)c2C)c(C)c1 [Compound 104, 5-tert-butyl-N-[3-(dimethylamino)-2-methyl-phenyl]sulfonyl-2-[(2,4,6-trimethylphenyl)methyl]pyrazole-3-carboxamide] | +++ (“+++” means <3 uM) |
| Cc1cccc(C)c1Cn1nc(C2CCCC2)cc1C(=O)NS(=O)(=O)c1cccc(N)c1 [Compound 105, N-(3-aminophenyl)sulfonyl-5-cyclopentyl-2-[(2,6-dimethylphenyl)methyl]pyrazole-3-carboxamide] | +++ (“+++” means <3 uM) |
| Cc1cc(C)c(Oc2ccc(C(C)(C)C)nc2C(=O)NS(=O)(=O)c2cccc(N)c2)c(C)c1 [Compound 106, N-(3-aminophenyl)sulfonyl-6-tert-butyl-3-(2,4,6-trimethylphenoxy)pyridine-2-carboxamide] | +++ (“+++” means <3 uM) |
| Cc1cc(C)c(Oc2nc(C(C)(C)C)ccc2C(=O)NS(=O)(=O)c2c[nH]ccc2=O)c(C)c1 [Compound 107, 6-tert-butyl-N-[(4-oxo-1H-pyridin-3-yl)sulfonyl]-2-(2,4,6-trimethylphenoxy)pyridine-3-carboxamide] | +++ (“+++” means <3 uM) |
| CC(C)(C)c1cc(C(=O)NS(=O)(=O)c2ccccc2)n(Cc2cccc(-n3cccc3)c2)n1 [Compound 108, N-(benzenesulfonyl)-5-tert-butyl-2-[(3-pyrrol-1-ylphenyl)methyl]pyrazole-3-carboxamide] | +++ (“+++” means <3 uM) |
| Cc1cccc(C)c1Cn1nc(-c2ccccc2F)cc1C(=O)NS(=O)(=O)c1ccccc1 [Compound 109, N-(benzenesulfonyl)-2-[(2,6-dimethylphenyl)methyl]-5-(2-fluorophenyl)pyrazole-3-carboxamide] | +++ (“+++” means <3 uM) |
| Cc1cc(C)c(Cn2nc(C(C)(C)C)cc2C(=O)NS(=O)(=O)c2cccc(N)c2)c(C)c1 [Compound 110, N-(3-aminophenyl)sulfonyl-5-tert-butyl-2-[(2,4,6-trimethylphenyl)methyl]pyrazole-3-carboxamide] | +++ (“+++” means <3 uM) |
